Measured values published in patent US11371055B2, “Herbicide resistance genes” (CORTEVA AGRISCIENCE LLC, priority 2005, dated 2022).
Marks after values point to notes of the source that are not given here.

Assays:
[1] = test system: Untransformed control corn (5XH751×Hi II); assay: Brace root injury of untransformed control corn after 2,4-D DMA; assay type: in vivo, Zea mays; details: 2240 g ae/ha 2,4-D DMA, V3-V4 stage, 14DAT
From the text: T1 AAD-12 (v1) seed were planted into 3-inch pots containing Metro Mix media and at 2 leaf stage were sprayed with 70 g ae/ha imazethapyr to eliminate nulls. Surviving plants were transplanted to 1-gallon pots containing Metro Mix media and placed in the same growth conditions as before. At V3-V4 stage the plants were sprayed in the track sprayer set to 187 L/ha at either 560 or 2240 g ac/ha 2,4-D DMA. Plants were graded at 3 and 14 DAT and compared to 5XH751×Hi II control plants. A grading scale of 0-10 (no injury to extreme auxin injury) was developed to distinguish brace root injury. Brace Root grades were taken on 14DAT to show 2,4-D tolerance. 2,4-D causes brace root malformation, and is a consistent indicator of auxinic herbicide injury in corn. […] Event “pDAB4101(0)001.001” was apparently unstable; however, the other two events were robustly tolerant to 2,4-D and 2,4-D+imazethapyr or 2,-4D+glyphosate (see Table 16).

AAD-12 (v2) = target: T1, AAD-12 (v2) (Delftia acidovorans, UniProt P83309); assay: Colorimetric phenol detection assay of AAD-12 activity; assay type: biochemical; details: for activity of AAD-12 (v2) on substrate (absorbance at 510 nm, FIG. 3): 4.4 μg AAD-12 (v2), 0.5 mM substrate, 5 minutes
T1 construct: made in house; host or cells: Pseudomonas fluorescens strain MB324 (construct pDAB739)
Experimental: Enzyme activity was measured by colorimetric detection of the product phenol using a protocol modified from that of Fukumori and Hausinger (1993) (J. Biol. Chem. 268: 24311-24317) to enable deployment in a 96-well microplate format. The colorimetric assay has been described for use in measuring the activity of dioxygenases cleaving 2,4-D and dichlorprop to release the product 2,4-dichlorophenol. The color yield from several phenols was compared to that of 2,4-dichlorophenol using the detection method previously described to ascertain which phenol products could be readily detected. […] Pyridinols derived from fluroxypyr and triclopyr produced no significant color. The color yield of 2,4-dichlorophenol was linear and proportional to the concentration of phenol in the assay up to ˜500 μM.
Assays were initiated by addition of the aryloxyalkanoate substrate, enzyme or α-ketoglutarate at time zero. After 5 minutes of incubation at 25° C., the reaction was terminated by addition of 30 μl of a 1:1:1 mix of 50 mM Na EDTA; pH 10 buffer (3.09 g boric acid+3.73 g KCl+44 ml 1 N KOH) and 0.2% 4-aminoantipyrine. Then 10 μl 0.8% potassium ferricyanide was added and after 5 or 10 min, the absorbance at 510 nm was recorded in a spectrophotometric microplate reader. Blanks contained all reagents except for enzyme to account for the occasional slight contamination of some of the substrates by small amounts of phenols.
The results are shown in FIG. 3, which illustrates activity of AAD-12 (v2) on 2,4-D and enantiomers of dichlorprop. 4.4 μg AAD-12 (v2) was incubated with 0.5 mM substrate (1 mM for (R,S)-dichlorprop) and the reaction initiated by addition of α-ketoglutarate. After 5 minutes, the reaction was quenched, and the absorbance at 510 nm determined after addition of colorimetric detection reagents. The background value without enzyme was subtracted.

[2] = test system: Pat/Cry1f-Control Arabidopsis; assay: Foliar-applied auxinic herbicides on transformed control Arabidopsis; assay type: in vivo, Arabidopsis thaliana; details: Pyridyloxyacetic auxins
Experimental: (§1) The ability of AAD-12 (v1) to provide resistance to other aryloxyalkanoate auxin herbicides in transgenic Arabidopsis was determined by foliar application of various substrates. T2 generation Arabidopsis seed was stratified, and sown into selection trays much like that of Arabidopsis (Example 6.4). A transformed-control line containing PAT and the insect resistance gene Cry1F was planted in a similar manner. Seedlings were transferred to individual 3-inch pots in the greenhouse. All plants were sprayed with the use of a track sprayer set at 187 L/ha. The plants were sprayed with a range of pyridyloxyacetate herbicides: 280-2240 g ae/ha triclopyr (Garlon 3A, Dow AgroSciences) and 280-2240 g ae/ha fluroxypyr (Starane, Dow AgroSciences); and the 2,4-D metabolite resulting from AAD-12 activity, 2,4-dichlorophenol (DCP, Sigma) (at a molar equivalent to 280-2240 g ac/ha of 2,4-D, technical grade DCP was used). All applications were formulated in water. Each treatment was replicated 3-4 times. Plants were evaluated at 3 and 14 days after treatment.

[3] = test system: Segregating T2 AAD-12 (v1) plants (pDAB724.01.1.20); assay: Foliar-applied auxinic herbicides on T2 Arabidopsis; assay type: in vivo, Arabidopsis thaliana; details: Pyridyloxyacetic auxins
Experimental: as §1

[4] = test system: wild-type rice (Clearfield 131); assay: Field tolerance of rice, wild-type; assay type: in vivo, Oryza sativa; details: for % Visual injury 7DAT / % Visual injury 15DAT: Wild-type Clearfield
Experimental: A field level tolerance trial was conducted with AAD-12 (v1) event pDAB4101[20] and one wild-type rice (Clearfield 131) at Wayside, Miss. (a non-transgenic imidazolinone-resistant variety). The experimental design was a randomized complete block design with a single replication. […] Within each herbicide treatment, two rows of T1 generation pDAB4101[20] and two rows of Clearfield rice were planted using a small plot drill with 8-inch row spacing. The pDAB4101[20] rice contained the AHAS gene as a selectable marker for the AAD-12(v1) gene. Imazethapyr was applied at the one leaf stage as selection agent to remove any AAD-12 (v1) null plants from the plots. Herbicide treatments were applied when the rice reached the 2 leaf stage using compressed air backpack sprayer delivering 187 L/ha carrier volume at 130-200 kpa pressure. […]

[5] = test system: R-dichlorprop habituated BY2 tobacco cells; assay: 2,4-D dose response of tobacco cell suspension (BY2); assay type: cell-based; details: LSBY2C medium
Experimental: A dose response study was conducted with both the R-dichlorprop habituated PHL cells and the R-dichlorprop habituated BY2 cells where R-dichlorprop was substituted directly for 2,4-D in culture media. Though the focus was on PHL, a dose response was also done with BY2 in case of possible future studies, as well as to help predict the dose response for PHL. For the dichlorprop habituated PHL dose response, the levels of 2,4-D used (on LSBY2C medium with R-dichlorprop) were 0 (the control), 1, 2, 3, 5, 8, 10, 12, 15, 18, 20, 40, 60, 80, […] mg/L 2,4-D. There were four replications per concentration. For the R-dichlorprop habituated BY2 dose response, the levels of 2,4-D used (on LSBY2C medium) were 0 (the control), 1, 2, 3, 5, 8, 10, 20, 30, 40, mg/L 2,4-D.

T1 sequence (P83309 whole entry, looked up, natural form): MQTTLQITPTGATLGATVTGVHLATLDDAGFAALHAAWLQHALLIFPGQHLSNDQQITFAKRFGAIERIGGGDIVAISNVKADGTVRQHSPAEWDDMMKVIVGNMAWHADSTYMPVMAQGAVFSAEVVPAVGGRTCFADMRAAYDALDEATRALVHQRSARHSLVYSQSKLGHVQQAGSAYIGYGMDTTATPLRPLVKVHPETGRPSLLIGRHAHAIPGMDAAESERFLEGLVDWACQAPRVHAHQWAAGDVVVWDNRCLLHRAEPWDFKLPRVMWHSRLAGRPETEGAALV

| Compound | activity of AAD-12 (v2) on substrate (absorbance at 510 nm, FIG. 3) (AAD-12 (v2)) | Ave % Injury 14DAT ([2]; 280 g ae/ha foliar) | Ave % Injury 14DAT ([2]; 560 g ae/ha foliar) | Ave % Injury 14DAT ([2]; 1120 g ae/ha foliar) | Ave % Injury 14DAT ([2]; 2240 g ae/ha foliar) | Ave % Injury 14DAT ([3]; 280 g ae/ha foliar) [%] | Ave % Injury 14DAT ([3]; 560 g ae/ha foliar) [%] | Ave % Injury 14DAT ([3]; 1120 g ae/ha foliar) [%] | Ave % Injury 14DAT ([3]; 2240 g ae/ha foliar) [%] | further results |
| --- | --- | --- | --- | --- | --- | --- | --- | --- | --- | --- |
| CNC.O=C(O)COc1ccc(Cl)cc1Cl [2,4-D DMA] |  |  |  |  |  |  |  |  |  | Average Brace Root Injury (0-10 Scale) [1]: 9 |
| C[C@@H](Oc1ccc(Cl)cc1Cl)C(=O)O [(R)-dichlorprop, R-2,4-dichlorophenoxypropionic acid] | minimal activity |  |  |  |  |  |  |  |  |  |
| Nc1c(Cl)c(F)nc(OCC(=O)O)c1Cl [Fluroxypyr] |  | 75* % | 75* % | 75* % | 75* % | 0 | 2 | 3 | 5 |  |
| O=C(O)COc1nc(Cl)c(Cl)cc1Cl [triclopyr] |  | 52% | 58% | 75* % | 75* % | 0 | 3 | 0 | 3 | visual injury ([4]; 2× rate of triclopyr (560 g ae/ha), 7DAT): 15%; visual injury ([4]; 2× rate of triclopyr (560 g ae/ha), 15DAT): 25%; % Visual injury 7DAT ([4]; 840 GM AE/HA): 30%; % Visual injury 15DAT ([4]; 840 GM AE/HA): 25% |
| O=C(O)COc1ccc(Cl)cc1Cl [2,4-D, 2,4-dichlorophenoxyacetic acid] | equivalent to that on (S)-dichlorprop |  |  |  |  |  |  |  |  | lethal concentration of 2,4-D [5]: 10 mg/L; sub lethal concentration of 2,4-D [5]: 8 mg/L; inhibition at 2000 µM (AAD-12 (v2); read-out: Substrate inhibition at 2 mM): 55%; visual injury ([4]; 2,4-D at 2240 g ae/ha, 7DAT): 30%; visual injury ([4]; 2,4-D at 2240 g ae/ha, 15DAT): 35%; % Visual injury 7DAT ([4]; 2240 GM AE/HA): 15%; % Visual injury 15DAT ([4]; 2240 GM AE/HA): 35% |
